Test results: US20230218652A1, “ANTIFUNGAL PRODRUGS” (CENTRE NATIONAL DE LA RECHERCHE SCIENTIFIQUE, priority 2020, published 2023)
Entries after “also recorded” stand apart in the source; their conditions may differ. Read-outs that look alike come from different tables or passages of the source. Each block holds one compound with its values, some of them ahead of it.

How the values were obtained:
[1] = tested on: Candida albicans (filamented yeasts); experiment: Antifungal activity in vitro, broth microdilution (filamented yeasts); type: cell-based; conditions: mean ± SEM
Method: (§1) Half maximal inhibitory concentration (IC50) required to inhibit 50% of the in vitro cell growth or viability were determined with broth microdilution method according to the European committee on antimicrobial susceptibility testing recommendations (protocols E.DEF 7.3.1 for Candida spp.) and according to a certified internal procedure to the laboratory IICiMed (for Leishmania spp.) (Le Pape, et al. Acta Parasitologica 2002, 47, 79-81). […]
(§2) Growth or cell viability was performed on flat-bottomed microplate, firstly appreciated by visual reading and always confirmed using a Bio-Rad iMark microplate absorbance reader to measure the absorbance of the plate at 595 nm or using a resazurin salt cell viability assay with a Packard fluorocount microplate reader BF10000 with halogen light source to measure the fluorescence at 590 nm after excitation at 530 nm. Results represent the mean (±the standard error of the mean SEM if available) calculated from at least two independent experiments performed each in triplicate on one or several strains. […]

[2] = tested on: Leishmania major (promastigote); experiment: Antiparasitic activity in vitro (promastigote); type: cell-based; conditions: mean ± SEM
Method: as §1, §2

[3] = tested on: HeLa cells; experiment: Human cells cytotoxicity, HeLa; type: cell-based; conditions: for IC50: HeLa cell line
Method: (§3) Half maximal inhibitory concentration (IC50) required to inhibit 50% of the in vitro cell growth or viability were determined with broth microdilution method according to the European committee on antimicrobial susceptibility testing recommendations (protocols E.DEF 7.3.1 for Candida spp.) and according to a certified internal procedure to the laboratory IICiMed (for Leishmania spp.) (Le Pape, et al. Acta Parasitologica 2002, 47, 79-81).
(§4) The different strains, isolates and cell lines used are listed below: • Candida albicans clinical strain (IICiMed number CAAL93) • Candida albicans clinical strain (IICiMed number CAAL121) • Candida albicans reference strain SC5314 (IICiMed number CAAL146) • Leishmania major reference isolate MHOM/IL/81/BNI (IICiMed number LEMA1) • A549 cell line reference ATCC® CCL-185 (carcinoma epithelial cells from lung) • HeLa cell line reference
(§5) Growth or cell viability was performed on flat-bottomed microplate, firstly appreciated by visual reading and always confirmed using a Bio-Rad iMark microplate absorbance reader to measure the absorbance of the plate at 595 nm or using a resazurin salt cell viability assay with a Packard fluorocount microplate reader BF10000 with halogen light source to measure the fluorescence at 590 nm after excitation at 530 nm. Results represent the mean (±the standard error of the mean SEM if available) calculated from at least two independent experiments performed each in triplicate on one or several strains. The values are expressed with the corresponding pathogens and are represented in μM.

[4] = tested on: Cryptococcus neoformans; experiment: In vivo anti-Cryptococcus activity in Galleria mellonella model (C. neoformans); conditions: dose 2 mg·kg-1
Method: (§6) This model also constitutes a screening model and a good alternative to the traditional studies on murine models for the evaluation of the activity of antifungal molecules. The AmB prodrug of the invention (Compound 1) was evaluated for its antifungal efficacy against Cryptococcus neoformans and Cr. gattii. […] In the absence of treatment, all larvae died after 6 days and 5 days, respectively. For Cryptococcus neoformans, at a dose of 2 mg·kg-1, amphotericin B led to 50% survival and its prodrug was also effective with a percentage survival of 30% at an equivalent dose.

[5] = tested on: Cryptococcus neoformans; experiment: Antifungal activity in vitro; type: cell-based
Method: as §3, §5

[6] = tested on: Cryptococcus gattii; experiment: Antifungal activity in vitro; type: cell-based
Method: as §3, §5

[7] = tested on: Cr. gattii; experiment: In vivo anti-Cryptococcus activity in Galleria mellonella model (Cr. gattii)
Method: as §6
In the case of Cr. gattii, amphotericin B and the prodrug led to 30% and 20% survival respectively.

[8] = tested on: Candida albicans (blastospores); experiment: Antifungal activity in vitro, broth microdilution (blastospores); type: cell-based; conditions: mean ± SEM
Method: as §1, §2

[9] = tested on: Galleria mellonella; experiment: Toxicity on the Galleria mellonella model; type: in vivo; conditions: uninfected larvae, dose 2 mg·kg-1
Method: The larval model represents a rapid and practical tool for assessing the intrinsic toxicity of an active substance. See Le Pape et al, 2019, Int J Infect Dis. 2019 April; 81:85-90 for more details concerning the model. The larvae were incubated with AmB, AmB prodrug (Compound 1) and vehicle. At the dose of 2 mg·kg-1, AmB was very toxic leading to a 40% survival of the treated group. In comparison, at an equivalent dose, its prodrug was much less toxic with a percentage survival of 80%.

[10] = tested on: Leishmania major (amastigote); experiment: Antiparasitic activity in vitro (intracellular amastigote); type: cell-based; conditions: intracellular amastigotes
Method: as §1, §2

[11] = tested on: A549; experiment: Human cells cytotoxicity, A549; type: cell-based; conditions: pneumocyte line A549
Method: as §1, §2

[12] = Human cells cytotoxicity, A549; type: cell-based; conditions: human, A549 cells (ATCC CCL-185, lung carcinoma epithelial cells), pneumocyte line A549
Method: as §1, §2

[13] = Human cells cytotoxicity, HeLa; type: cell-based; conditions: human, HeLa cells; HeLa cell line
Method: as §3, §4, §5

[14] = Human cells cytotoxicity, hPBMC; type: cell-based; conditions: human peripheral blood mononuclear cells (hPBMC); human PBMC
[15] = tested on: C. albicans blastoconidia; experiment: Mouse model of C. albicans blastoconidia infection; type: in vivo, mice; conditions: 1 mg/kg i.p. once daily for 3 days, listed as AmB prodrug
Method: Mice were immunosuppressed by subcutaneous injection of 30 mg/kg prednisolone one day before challenge. On day 0, mice were infected intravenously C. albicans blastoconidia. One hour after infection, mice were treated intraperitoneally once daily with 1 mg/kg body weight of Fungizone®, Ambisome® and AmB prodrug (Compound 1, FIG. 1A) for 3 consecutive days. The control group received sterile distillated water (vehicle). Survival was monitored for 14 days post inoculation. Differences in cohorts were analyzed by the log-rank test. On day 14, all mice were euthanized and their kidneys were excised and weighed. Tissues were homogenized and serially diluted 10- to 1000-fold in sterile saline, then plated onto Sabouraud dextrose agar and incubated for 48 h to determine the number of CFUs. Tissue fungal burden was expressed as average log CFUs/gram of tissue. Differences in mean CFUs in kidneys were compared with the vehicle control using a one-way ANOVA with a post-hoc Tukey test. A P value of <0.05 was considered statistically significant.

[16] = Aqueous stability in the absence of enzyme; type: physicochemical; conditions: for aqueous stability (in words): aqueous medium/buffer, 37° C., absence of the enzyme
Method: Enzymatic Release and Aqueous Stability In vitro enzymatic hydrolysis was carried out with commercial β-N-acetylhexosaminidase from Canavalia ensiformis E.C. 3.2.1.52 (22.8 units·mg^−1 protein, suspension in 2.5 M ammonium sulfate, pH 7.0). Using a VWR® Cooling Thermal Shake Touch and monitoring by analytical LC. Prodrug 1 was incubated with the enzyme according to the table below: […]

Structure (SMILES): C[C@@H]1[C@H](O)[C@@H](C)/C=C/C=C/C=C/C=C/C=C/C=C/C=C/[C@H](O[C@@H]2O[C@H](C)[C@@H](O)[C@H](N)[C@@H]2O)C[C@@H]2O[C@](O)(C[C@@H](O)C[C@@H](O)[C@H](O)CC[C@@H](O)C[C@@H](O)CC(=O)O[C@H]1C)C[C@H](O)[C@H]2C(=O)O [Amphotericin B, amphotericin B, reference compound]
IC50 [1]: 310 ± 10 nM
IC50 [2]: 310 ± 20 nM
IC50 [3]: 23290 ± 110 nM
IC50 ([3]; listed as AmB): ~23000 nM
percentage survival, larvae infected with Cryptococcus neoformans [4]: 50%
IC50 [5]: 30 nM
IC50 [6]: 40 nM
survival, larvae infected with Cr. gattii [7]: 30%
IC50 [8]: 360 ± 40 nM
survival of the treated group (toxicity) [9]: 40%
IC50 [10]: < 100 nM

IC50 ([1]; Candida albicans): 420 ± 10 nM
IC50 ([2]; Leishmania major): 270 ± 60 nM
IC50 ([5]; Cryptococcus neoformans): 250 nM
IC50 ([6]; Cryptococcus gattii): 600 nM
IC50 ([8]; Candida albicans): 430 ± 20 nM
aqueous stability (in words) ([16]; listed as AmB prodrug): stable
aqueous stability (in words) ([16]; listed as prodrug): stable
aqueous stability (in words) ([16]; listed as prodrug 1): good aqueous stability
half-life ([16]; aqueous solution without enzyme, aqueous, pH 7.4, 37° C., read-out: t1/2 aq, pH 7.4, 37° C.): > 24 h
IC50 ([10]; Leishmania major): < 100 nM
Structure (SMILES): CC(=O)N[C@H]1[C@H](Oc2ccc(COC(=O)N[C@@H]3[C@H](O)[C@H](O[C@H]4/C=C/C=C/C=C/C=C/C=C/C=C/C=C/[C@H](C)[C@@H](O)[C@@H](C)[C@H](C)OC(=O)C[C@H](O)C[C@H](O)CC[C@@H](O)[C@H](O)C[C@H](O)C[C@]5(O)C[C@H](O)[C@@H](C(=O)O)[C@H](C4)O5)O[C@H](C)[C@H]3O)cc2[N+](=O)[O-])O[C@H](CO)[C@@H](O)[C@@H]1O [Compound 1]
IC50 [11]: > 100000 nM
IC50 [12]: > 50000 nM
IC50 [13]: > 100000 nM
toxicity on HELA cells (in words) [3]: does not exhibit any significant toxicity
percentage survival, larvae infected with Cryptococcus neoformans [4]: 30%
survival, larvae infected with Cr. gattii [7]: 20%
survival of the treated group (toxicity) [9]: 80%
IC50 [14]: > 50000 nM
fungal burden of the kidney ([15]; day 14, vs control group): significantly reduction of the burden; also recorded: significant decrease in the kidney fungal load
survival ([15]; immunosuppressed mice, 14 days monitoring, vs vehicle, 1 mg/kg): statically improved survival; also recorded: significant improvement in survival
